Reference: patent US20140357512A1, “HISTONE DEACETYLASE (HDAC) BIOMARKERS IN MULTIPLE MYELOMA” (priority 2013, published 2014)

System: human myeloma cell line MM.1S
Experiment: SILAC acetylated-lysine peptide profiling, HDAC inhibitor vs DMSO (light/heavy ratio)
Type: cell-based
Text: An embodiment of the invention comprises utilizing the SILAC method in order to quantitate changes in protein expression between two or more populations of cells. The SILAC method is a technique based on mass spectrometry that detects differences in protein abundance among samples using non-radioactive isotopic labeling. The SILAC method is known in the art, and described in detail in Ong et al., “Stable Isotope Labeling by Amino Acids in Cell Culture, SILAC, as a Simple and Accurate Approach to Expression Proteomics”, Molecular & Cellular Proteomics, vol. 1, pp. 376-386 (2002), which is incorporated herein by reference in its entirety.
Briefly, the SILAC method involves growing two populations of cells in cell culture. The first population of cells is grown in growth media containing normal amino acids (“normal media”). The second population of cells is grown in media lacking a standard essential amino acid (such as lysine), but is then supplemented with a non-radioactive, isotopically labeled form of that essential amino acid (such as lysine labeled with ^13C atoms, rather than normal ^12C atoms), which is called “heavy media”. When the two populations of cells are each growing in the medium, they incorporate the amino acids into all of their proteins. The growth of cells maintained in the heavy media is no different from that in normal media. All peptides containing the heavy amino acids are heavier than their normal counterparts. The cells from each of the two populations of cells are lysed. The lysates from each of the two cell populations are then combined. The combined cell lysates are then analyzed by mass spectrometry. Pairs of chemically identical peptides of different stable isotope composition can be differentiated in a mass spectrometer due to their difference in mass. The ratio of peak intensities in the mass spectrum for such peptide pairs reflects the abundance ratio for the two proteins.
This example describes SILAC studies that were performed to compare the effects of three different HDAC inhibitors (Compound A, Compound B, and tubastatin A) to a control on a human multiple myeloma cell line. The HDAC inhibitors were also compared amongst themselves to determine differences in their effects.
A human myeloma cell line MM.1S was grown using either ^12C (light) or ^13C (heavy) lysine containing culture medium. The “heavy” cells were treated with DMSO as the control, and the “light” cells were treated with a single HDAC inhibitor at 37° C. for 6 hours. The heavy and light cells were lysed, and the lysates were mixed in 1:1 ratio and digested with the protease trypsin. The acetylated lysine containing peptides (due to the action of the HDAC inhibitor) in the digested peptide pool were captured by a non-specific anti-acetylated lysine antibody cocktail (the antibodies identify both light and heavy acetylated peptides), and subjected to mass spectrometry analysis in order to identify thousands of individual peptides.
Thousands of peptides were identified in pairs (^12C and ^13C) due to their known mass differences. The amino acid sequence and quantitative ratio (Light/Heavy) of a given peptide in two differentially treated cell lysates were then determined and annotated with their possible protein (gene) sources.
As stated above, three HDAC inhibitors (Compound A, Compound B, and Tubastatin A) were used. Thus, the SILAC method was performed three times, with a different HDAC inhibitor compared to a control each time. Accordingly, there are three pairs of quantitative data in the table below, i.e., Compound A:DMSO, Compound B:DMSO, and Tubastatin A:DMSO. A cut-off of 1.30 fold of change (increase or decrease) was then used to determine “changed” or “+” in the table, and any peptides with a fold of change less than 1.3 fold were determined to be “unchanged” or “0” in the table. Those peptides that were not identified were marked as “NA” in the table. […]

CN1CCc2c(c3ccccc3n2Cc2ccc(C(=O)NO)cc2)C1 [Tub A]
light to heavy ratio (L/H ratio) of acetylated peptide LLLFK(ac)TFSR (SEQ ID NO: 514) (Heterogeneous nuclear ribonucleoprotein U-like protein 2 [553], gene HNRNPUL2, inhibitor:DMSO): 0.00 log 2
light to heavy ratio (L/H ratio), log 2 scale, acetylated peptide GSK(ac)K(ac)AINK (SEQ ID NO: 792) (Histone H2B type 1-M [16:17], gene HIST1H2BM, drug:DMSO): 0.00
light to heavy ratio (L/H ratio), log 2 scale, acetylated peptide K(ac)AINK(ac)AQK (SEQ ID NO: 793) (Histone H2B type 1-M [17:21], gene HIST1H2BM, drug:DMSO): 0.00
light to heavy ratio (L/H ratio) of acetylated peptide PEPAK(ac)SAPAPK(ac)K (SEQ ID NO: 309) (Histone H2B type 2-E [6:12], HIST2H2BE, drug:DMSO): 0.58 log 2
light to heavy ratio (L/H ratio) of acetylated peptide AVTK(ac)AQK(ac)K (SEQ ID NO: 560) (Histone H2B type 2-E [21:24], gene HIST2H2BE, inhibitor:DMSO): 0.00 log 2
light to heavy ratio (L/H ratio) of acetylated peptide K(ac)STGGK(ac)APR (SEQ ID NO: 310) (Histone H3.2 [10:15], HIST2H3D, HIST2H3A, HIST2H3C, drug:DMSO): 0.46 log 2
light to heavy ratio (L/H ratio), log 2 scale, acetylated peptide K(ac)QLATK(ac)AAR (SEQ ID NO: 796) (Histone H3.2 [19:24], gene HIST2H3D, HIST2H3A, HIST2H3C, drug:DMSO): 0.00
light to heavy ratio (L/H ratio) of acetylated peptide GK(ac)GGK(ac)GLGK (SEQ ID NO: 311) (Histone H4 [6:9], HIST2H4B, HIST1H4C and other H4 genes, drug:DMSO): 0.49 log 2
light to heavy ratio (L/H ratio) of acetylated peptide GLGK(ac)GGAK(ac)R (SEQ ID NO: 312) (Histone H4 [13:17], HIST2H4B, HIST1H4C and other H4 genes, drug:DMSO): 0.49 log 2
light to heavy ratio (L/H ratio) of acetylated peptide GLGK(ac)GGAKR (SEQ ID NO: 313) (Histone H4 [13], HIST2H4B, HIST1H4C and other H4 genes, drug:DMSO): −0.62 log 2
light to heavy ratio (L/H ratio) of acetylated peptide DGLQNEK(ac)NIVSTPVK (SEQ ID NO: 268) (Hydroxymethylglutaryl-CoA lyase mitochondrial [48], HMGCL, drug:DMSO): 0.40 log 2
light to heavy ratio (L/H ratio) of acetylated peptide K(ac)NINCSIEESFQR (SEQ ID NO: 594) (Hydroxymethylglutaryl-CoA lyase mitochondrial [137], gene HMGCL, inhibitor:DMSO): 0.00 log 2
light to heavy ratio (L/H ratio) of acetylated peptide, log 2 scale (IFVGGLSPDTPEEK(ac)IR (SEQ ID NO: 166), Isoform 1 of Heterogeneous nuclear ribonucleoprotein D0 [197], HNRNPD): −0.78
light to heavy ratio (L/H ratio) of acetylated peptide, log 2 scale (IGFGSFVDK(ac)TVLPFVSTVPSK (SEQ ID NO: 180), Isoform Long of Integrin beta-7 [199], ITGB7): −0.40
light to heavy ratio (L/H ratio) of acetylated peptide, log 2 scale (IGIEIIK(ac)R (SEQ ID NO: 174), 60 kDa heat shock protein mitochondrial [469], HSPD1): −0.42
L/H ratio of acetylated peptide YAASSYLSLTPEQWK(ac)SHR (SEQ ID NO: 56) (IGLV2-14, IGLC2 [208], log 2 scale, drug vs DMSO): −0.63
light to heavy ratio (L/H ratio) of acetylated peptide, log 2 scale (IMK(ac)DLDQCR (SEQ ID NO: 217), Protein S100-A10 [57], S100A10): 0.72
light to heavy ratio (L/H ratio) of acetylated peptide, log 2 scale (IQDK(ac)EGIPPDQQR (SEQ ID NO: 212), Ubiquitin-40S ribosomal protein S27a [33], RPS27A): −0.50
light to heavy ratio (L/H ratio) of acetylated peptide, log 2 scale (ISK(ac)EVLAGR (SEQ ID NO: 167), Isoform Short of Heterogeneous nuclear ribonucleoprotein U [417], HNRNPU): −0.75
L/H ratio of acetylated peptide (IVQK(ac)HPHTGDTKEEK (SEQ ID NO: 489), Death-associated protein 1 [29], DAP): 0.00 log 2
light to heavy ratio (L/H ratio) of acetylated peptide, log 2 scale (IYFTDSSSK(ac)WQR (SEQ ID NO: 138), Isoform 1 of Adipocyte plasma membrane-associated protein [220], C20orf3): −0.59
light to heavy ratio (L/H ratio), log 2 scale, acetylated peptide ADLIK(ac)QYGR (SEQ ID NO: 798) (Inactive hydroxysteroid dehydrogenase-like protein 1 [64], gene HSDL1, drug:DMSO): 0.00
light to heavy ratio (L/H ratio) of acetylated peptide HAHGDQYK(ac)ATDFVADR (SEQ ID NO: 574) (Isocitrate dehydrogenase [NADP] mitochondrial [180], gene IDH2, inhibitor:DMSO): 0.00 log 2
light to heavy ratio (L/H ratio) of acetylated peptide AGTFK(ac)MVFTPK (SEQ ID NO: 606) (Isocitrate dehydrogenase [NADP] mitochondrial [193], gene IDH2, inhibitor:DMSO): 0.00 log 2
light to heavy ratio (L/H ratio) of acetylated peptide VVDSMDALDK(ac)VVQER (SEQ ID NO: 318) (Isoform 1 of 39S ribosomal protein L47 mitochondrial [144], MRPL47, drug:DMSO): 0.45 log 2
light to heavy ratio (L/H ratio) of acetylated peptide ATVPK(ac)TEIR (SEQ ID NO: 272) (Isoform 1 of 40S ribosomal protein S24 [37], RPS24, drug:DMSO): −0.44 log 2
light to heavy ratio (L/H ratio) of acetylated peptide AEEILEK(ac)GLK (SEQ ID NO: 547) (Isoform 1 of 60S ribosomal protein L11 [85], gene RPL11, inhibitor:DMSO): 0.00 log 2
light to heavy ratio (L/H ratio) of acetylated peptide ISK(ac)EEAMR (SEQ ID NO: 299) (Isoform 1 of 60S ribosomal protein L11 [159], RPL11, drug:DMSO): −0.48 log 2
light to heavy ratio (L/H ratio) of acetylated peptide AGLVDDFEK(ac)K (SEQ ID NO: 301) (Isoform 1 of ATP synthase subunit d mitochondrial [72], ATP5H, drug:DMSO): 0.66 log 2
light to heavy ratio (L/H ratio) of acetylated peptide VPVPEDK(ac)YTAQVDAEEKEDVK (SEQ ID NO: 290) (Isoform 1 of ATP synthase subunit d mitochondrial [85], ATP5H, drug:DMSO): 0.50 log 2
light to heavy ratio (L/H ratio) of acetylated peptide TLK(ac)ALEYVFK (SEQ ID NO: 516) (Isoform 1 of Dedicator of cytokinesis protein 2 [738], gene DOCK2, inhibitor:DMSO): 0.00 log 2
light to heavy ratio (L/H ratio), log 2 scale, acetylated peptide ILSK(ac)LSEETK (SEQ ID NO: 759) (Isoform 1 of E3 UFM1-protein ligase 1 [614], gene UFL1, drug:DMSO): 0.00
light to heavy ratio (L/H ratio) of acetylated peptide ELEK(ac)VCNPIITK (SEQ ID NO: 612) (Isoform 1 of Heat shock cognate 71 kDa protein [601], gene HSPA8, inhibitor:DMSO): 0.00 log 2
light to heavy ratio (L/H ratio) of acetylated peptide TLVLSDK(ac)HSPQK (SEQ ID NO: 523) (Isoform 1 of Histone-lysine N-methyltransferase MLL3 [2809], gene MLL3, inhibitor:DMSO): 0.00 log 2
light to heavy ratio (L/H ratio) of acetylated peptide VK(ac)NELFK (SEQ ID NO: 565) (Isoform 1 of Hydroxyacyl-coenzyme A dehydrogenase mitochondrial [127], gene HADH, inhibitor:DMSO): 0.00 log 2
light to heavy ratio (L/H ratio) of acetylated peptide LVAENK(ac)FGK (SEQ ID NO: 296) (Isoform 1 of Hydroxyacyl-coenzyme A dehydrogenase mitochondrial [301], HADH, drug:DMSO): −0.43 log 2
light to heavy ratio (L/H ratio) of acetylated peptide K(ac)SADTLWGIQK (SEQ ID NO: 316) (Isoform 1 of L-lactate dehydrogenase A chain [318], LDHA, drug:DMSO): 1.00 log 2
light to heavy ratio (L/H ratio) of acetylated peptide FYK(ac)DVLEVGELAK (SEQ ID NO: 596) (Isoform 1 of N-alpha-acetyltransferase 50 NatE catalytic subunit [37], gene NAA50, inhibitor:DMSO): 0.00 log 2
light to heavy ratio (L/H ratio), log 2 scale, acetylated peptide NLQEAEEWYK(ac)SK (SEQ ID NO: 767) (Isoform 1 of Peripherin [288], gene PRPH, drug:DMSO): 0.00
light to heavy ratio (L/H ratio) of acetylated peptide LMK(ac)YLLEQLK (SEQ ID NO: 585) (Isoform 1 of Protein MB21D1 [414], gene MB21D1, inhibitor:DMSO): 0.00 log 2
light to heavy ratio (L/H ratio) of acetylated peptide VLSK(ac)EFHLNESGDPSSK (SEQ ID NO: 294) (Isoform 1 of Protein SET [154], SET, drug:DMSO): −1.00 log 2
light to heavy ratio (L/H ratio) of acetylated peptide GYAYVEFENPDEAEK(ac)ALK (SEQ ID NO: 349) (Isoform 1 of RNA-binding protein with serine-rich domain 1 [218], RNPS1, drug:DMSO): 0.00 log 2
light to heavy ratio (L/H ratio), log 2 scale, acetylated peptide […](ac)TDQAQDVK (SEQ ID NO: 765) (Isoform 1 of Signal recognition particle 9 kDa protein [52], gene SRP9, drug:DMSO): 0.00
light to heavy ratio (L/H ratio) of acetylated peptide LEMSYSK(ac)FK (SEQ ID NO: 304) (Isoform 1 of UDP-N-acetylglucosamine--dolichyl-phosphate N-acetylglucosaminephosphotransferase [320], DPAGT1, drug:DMSO): 0.48 log 2
